Laboratory results reported in patent US20060019270A1, “Global DNA methylation assessment using bisulfite PCR” (Board of Regents The University of Texas System, priority 2004, published 2006).

Legend:
[1] = test system: LINE-1 methylation in Hct116, RKO and SW48 cell lines; experiment: LINE-1 methylation assay in cell lines treated with DAC (FIG. 14); format: cell-based, human; details: compared with untreated
Description: Hct116, RKO and SW48 cell lines were treated with 5-aza-2′deoxycytidine (DAC). The genomic DNA was treated with sodium bisulfite and a non-specific PCR was performed which amplified a pool of LINE-1 repetitive elements. The PCR product was then digested with HinfI, which only cuts repetitive elements that were originally methylated. The LINE-1 PCR assays the methylation of two sites and therefore HinfI can generate five possible digestion products of 285, 247, 166, 128 and 38 bp (not seen). The digested PCR product was separated by polyacrylamide gel electrophoresis and stained with ethidium bromide. The PCR bands were quantitated and the amount of methylation is shown below each gel lane.
Methylation of the L1 promotor was investigated by COBRA assay (Xiong and Laird, 1997), and bisulfite treatment was performed as described above. A […] PCR was carried out in 60 mM Tris-HCl pH=8.8, 15 mM Ammonium Sulfate, 0.5 mM MgCl2, 1 mM dNTP mix, and 1 unit of Taq polymerase. PCR cycling conditions were 95° C. for 30 seconds, 50° C. for 30 seconds, and 72° C. for 30 seconds for 28 cycles. […] Gels were stained with ethidium bromide, imaged, and quantitated in a Bio-Rad Geldoc 2000 imager (Bio-Rad, Hercules, Calif.). […]

Alu element methylation = experiment: Alu element assay (COBRA) on peripheral blood of leukemia patients treated with decitabine; format: in vivo, human
Description: FIG. 6 illustrates treatment schema of patient samples. Patients were treated as part of a Phase II study of Decitabine which was given initially a dose of 90 mg/m2 twice daily for 5 consecutive days. This dose was later decreased to 50 mg/m2 twice daily due to toxicity. In this “High” Dose Study a total dose of 500-900 mg/m2 of decitabine was given over a 5 day period. Peripheral blood specimens were collected on day 0 or 1 prior to treatment, days 2-4 during treatment, and on days 5 or 6 after the completion of treatment. In the second study, a Phase I strategy of “Low” Dose Decitabine was used. This study was designed to take advantage of Decitabine's demethylating properties. Escalating doses of Decitabine of 5, 10, 15 and 20 mg/m2 were given as ten daily doses over a two week period. The total dose delivered was only 50 to 200 mg/m2 over a 14 day period. Peripheral blood specimens were collected on day 0 or 1 prior to treatment, and during days 2-14 of treatment;
Normal colon mucosa and colon cancers were collected from consenting patients. Thirty-one matched pairs of normal colon mucosa and colon tumors were used in this study. An additional 9 normal colon samples were collected from patients undergoing colectomy for non-neoplastic reasons. DNA was isolated using standard phenol-chloroform extraction methods. DNA was bisulfite treated as described above. A previously described COBRA assay that examined Alu repetitive elements was developed as a global genome methylation assessment assay (Xiong and Laird, 1997). In brief, a 25 ul PCR reaction was carried out in 60 mM Tris-HCl pH 9.5, 15 mM Ammonium Sulfate, 5.5 mM MgCl2, 10% DMSO, 1 mM dNTP mix, 1 unit of Taq polymerase, 50 pmol of the forward primer (5′-[…]-3′) (SEQ ID NO: 1), 50 pmol of the reverse primer (5′-[…]-3′) (SEQ ID NO:2), and approximately 50 ng of bisulfite treated genomic DNA. PCR cycling conditions were 96° C. for 90 seconds, 43° C. for 60 seconds, and 72° C. for 120 seconds for 27 cycles. After the PCR reaction was complete 15 μl of MboI buffer (New England Biolabs Buffer #3) were added along with 5 units of MboI Restriction Enzyme and water to a final volume of 150 ul. The restriction digestion was incubated at 37° C. overnight to assure complete digestion. The digested PCR product was then precipitated by adding 1 μl glycogen and 2 volumes of ethanol and kept at −20° C. for at least 4 hours. Samples were then centrifuged for 30 minutes, the ethanol was poured off and the pellet was air dried prior to resuspending in a small volume (5-10 μl) of water. The digested PCR products were then run on an Agilent Biosystems DNA analyzer to quantitate the cut ([…]) and uncut ([…]) DNA. Each sample was run at least twice and the data reported is an average of all runs.
The methylation sites in Alu elements are frequently mutated from C to T by spontaneous deamination, which results in a gross underestimating of the amount of 5-methylcytosine. Therefore, control genomic DNA was double treated with SssI methylase and bisulfite treated to act as a 100% methylated control. Alu methylation is reported as a percentage of this fully methylated control standard.
Patient samples were collected from patients treated as part of two clinical studies using 5-aza-2′deoxycytidine (decitabine) as a single agent. The first study treated patients with 50-90 mg/m2 of decitabine twice daily for 5 consecutive days (See FIG. 8). The second study was a phase I study which attempted to capitalize on the demethylating properties of decitabine by using a lower dose of decitabine, 5-20 mg/m^2 once daily, for a longer period of time, 10 days over a two week period (See FIG. 8). Peripheral blood samples were collected prior to, during and after treatment. Donation of blood samples for laboratory studies was voluntary and 143 samples were collected from 41 patients participating in both studies (See Table 4). […]

Nc1ncn([C@H]2C[C@H](O)[C@@H](CO)O2)c(=O)n1 [decitabine, 5-aza-2′-deoxycytidine]
LINE-1 methylation in DAC treated cell lines [1]: lower degree of methylation
average Alu demethylation (Alu element methylation; 41 patients with leukemia, different doses, 4 to 7 days after treatment): 7.7%
maximum decrease in Alu methylation seen in a single patient (Alu element methylation; 41 patients with leukemia, 4 to 7 days after treatment): 31.5%
optimal demethylating dose (Alu element methylation; DNA methylation at days 5 to 6, both studies (FIG. 9B)): 15 to 20 mg/m2/day
correlation of Alu demethylation with clinical response (Alu element methylation; High Dose Study (p=0.23)): demethylation did not correlate to response
mean decrease of Alu element methylation (Alu element methylation; High Dose study, day 5 to 8): 10%
correlation of Alu demethylation with clinical response (Alu element methylation; Low Dose Study (p=0.04 days 5-8, p=0.02 days 9-14)): demethylation did correlate to response
decrease in Alu element methylation (Alu element methylation; Low dose study, day 5 to 8): 5%
patients showing a paradoxical increase in DNA methylation with decitabine treatment (Alu element methylation; both studies): 12%
mean decrease in Alu methylation (Alu element methylation; both studies, overall): 7.7%
range of decrease in Alu methylation (Alu element methylation; both studies, overall): −10.3 to 31.5%
patients showing a decrease in Alu methylation with decitabine treatment (Alu element methylation; both studies, 90.5% methylated prior to treatment): 88%
earliest day demethylation could be detected (Alu element methylation; either dosing regimen): 2 days
time at which demethylation plateaus (Alu element methylation; low dose decitabine): 5 to 8 days
time for methylation to return to baseline after finishing treatment (in as little as) (Alu element methylation; patients with leukemia): 15 days
dose dependence of demethylation at higher doses (Alu element methylation; six dose levels 5-180 mg/m2/day, day 5-6): there did not appear to be a significant increase in demethylation beyond 20 mg/m2/day
